US8614238B2, “Cyclopentanecarboxamide derivatives, medicaments containing such compounds and their use” (Boehringer Ingelheim International GmbH, priority 2009, dated 2013)

Columns and labels:
[1] = test system: N-42 cells; experiment: 14C-acetate incorporation in N-42 cells; assay type: cell-based
Experimental: ^14C-Acetat Incorporation in N-42 Cells
30000 cells (N-42), in 24 well plates are incubated with the compound dissolved in 500 μL Krebs-Ringer-buffer for 60 min at 37° C., then incubated with 5 μL 1:10 14C-Acetate dilution (1 000 000 dpm) for 4 hours at 37° C. incubation, then washed with 500 μl PBS. 500 μL chloroform/methanol mix 1:1 and 175 μL sodium hydroxide solution was given in each well. The upper fraction is taken away and the lower fraction is vaporized. 50 μL chloroform/methanol mix 1:1 is again given in every well. 10 μL each are taken and given to scintillation vials with 4 mL Ultima Gold. Each vial is measured for 1 minute in a β-Counter.
Cerulenin, a literature known FAS inhibitor is used to validate the assay.

[2] = biological target: T1, Fatty Acid Synthase (FAS) (Homo sapiens, UniProt P49327); experiment: Human FAS Enzyme Assay; assay type: biochemical; details: FAS enzyme prepared from HeLa cells; NADPH consumption; read-out: IC50 (potency range)
T1 construct: The FAS enzyme is prepared from HeLa cells; endogenous in cells; host or cells: HeLa cells
Text: Fatty acid synthase is an enzyme complex that harbours seven enzymatic activities catalysing the reductive synthesis of long chain fatty acids from acetyl CoA and malonyl CoA to palmitate. When acetyl CoA and malonyl CoA are forming palmitate NADPH is consumed forming NADP. Since NADPH is fluorescent but not NADP the reaction can be measured by analysing the decrease in fluorescence.
Acetyl coenzyme A (cat.-no. A-2181) and malonyl coenzyme A (cat.-no. M-4263) are purchased from Sigma. NADPH (cat.-no. 30316) is purchased from Serva. The FAS enzyme is prepared from HeLa cells. All other material is of highest grade commercially available.
In the plates, 10 μl test compound in distilled water/DMSO (final concentration 0.1% DMSO) are mixed with 35 μl of a mixture of NADPH and acetyl CoA in phosphate buffer (f.c. 326 μM and 60 μM, respectively), and 45 μl FAS enzyme diluted in enzyme buffer. The plates are incubated for 60 minutes at 37° C. The reaction is then started by the addition of 10 μl malonyl CoA dissolved in water (200 μM). The decrease of the optical density in the wells is determined at 37° C. at a wavelength of 340 nm over 10 minutes. From these kinetic data, the slope (i.e. Vmax) is calculated and used for the calculation.
20 mM KH2PO4/K2HPO4, 1 mM EDTA, 1 mM DTT, 5% glycerol, pH 7.4
Each assay 96 well microtiter plate contains wells with vehicle controls instead of compound (1% DMSO in water) as reference for non-inhibited enzyme activity and wells without malonyl CoA as controls for non-specific NADPH degradation. The analysis of the data is performed by the calculation of the OD decrease in the presence of the test compound compared to the OD decrease of the test control wells after subtraction of the non-specific background without the malonyl CoA substrate (slope(sample)-slope(sample w/o malonyl CoA). An inhibitor of the FAS enzyme will give values between Control values (complete reaction without substance) and complete inhibition. Reported values will include: IC50; Top(Control: nmol NADPH oxidized/min/mg); Bottom (MaxInh: nmol NADPH oxidized/min/mg); RATIO (log(IC50 substance/IC50 control inhibitor)).

[3] = test system: sebaceous glands; experiment: In vivo activity on sebaceous glands in rats; design: species or system Wistar rats
Experimental: In vivo activity of the FAS inhibitors on sebaceous glands is determined as exemplified with the following experiment: Female Wistar rats [Crl:Wi(Han); Charles River, Germany] weighing 200-240 g are conventionally housed in Makrolon type cages at a constant temperature of 22±3° C., on a 12 h light/dark cycle. Food and water are provided ad libitum. The animals (n=7 per group) are orally treated once daily with 3, 10 and 30 mg/kg of compound 1.2 in a suspension with 0.5% Natrosol for seven days. All experimental procedures are conducted according to the German Animal Protection Law. Beginning with day 4 of treatment, at the highest dose effects on skin and coat of the animals could be detected. […] With longer treatment alopecia and cutaneous lesions also developed at the skin of the back. At day seven the animals are euthanized and representative tissue samples of the eye lid, muzzle and back skin are collected into 4% formaldehyde solution for microscopic examination. After trimming, the fixed tissues are processed, embedded in paraffin, sectioned at a thickness of approximately 4 μm and stained with hematoxylin-eosin (H&E). […] This lesion is sometimes accompanied by a slight inflammatory reaction.

[4] = female Wistar rats, highest dose (30 mg/kg orally once daily), beginning with day 4 of treatment

T1 sequence (P49327 whole entry): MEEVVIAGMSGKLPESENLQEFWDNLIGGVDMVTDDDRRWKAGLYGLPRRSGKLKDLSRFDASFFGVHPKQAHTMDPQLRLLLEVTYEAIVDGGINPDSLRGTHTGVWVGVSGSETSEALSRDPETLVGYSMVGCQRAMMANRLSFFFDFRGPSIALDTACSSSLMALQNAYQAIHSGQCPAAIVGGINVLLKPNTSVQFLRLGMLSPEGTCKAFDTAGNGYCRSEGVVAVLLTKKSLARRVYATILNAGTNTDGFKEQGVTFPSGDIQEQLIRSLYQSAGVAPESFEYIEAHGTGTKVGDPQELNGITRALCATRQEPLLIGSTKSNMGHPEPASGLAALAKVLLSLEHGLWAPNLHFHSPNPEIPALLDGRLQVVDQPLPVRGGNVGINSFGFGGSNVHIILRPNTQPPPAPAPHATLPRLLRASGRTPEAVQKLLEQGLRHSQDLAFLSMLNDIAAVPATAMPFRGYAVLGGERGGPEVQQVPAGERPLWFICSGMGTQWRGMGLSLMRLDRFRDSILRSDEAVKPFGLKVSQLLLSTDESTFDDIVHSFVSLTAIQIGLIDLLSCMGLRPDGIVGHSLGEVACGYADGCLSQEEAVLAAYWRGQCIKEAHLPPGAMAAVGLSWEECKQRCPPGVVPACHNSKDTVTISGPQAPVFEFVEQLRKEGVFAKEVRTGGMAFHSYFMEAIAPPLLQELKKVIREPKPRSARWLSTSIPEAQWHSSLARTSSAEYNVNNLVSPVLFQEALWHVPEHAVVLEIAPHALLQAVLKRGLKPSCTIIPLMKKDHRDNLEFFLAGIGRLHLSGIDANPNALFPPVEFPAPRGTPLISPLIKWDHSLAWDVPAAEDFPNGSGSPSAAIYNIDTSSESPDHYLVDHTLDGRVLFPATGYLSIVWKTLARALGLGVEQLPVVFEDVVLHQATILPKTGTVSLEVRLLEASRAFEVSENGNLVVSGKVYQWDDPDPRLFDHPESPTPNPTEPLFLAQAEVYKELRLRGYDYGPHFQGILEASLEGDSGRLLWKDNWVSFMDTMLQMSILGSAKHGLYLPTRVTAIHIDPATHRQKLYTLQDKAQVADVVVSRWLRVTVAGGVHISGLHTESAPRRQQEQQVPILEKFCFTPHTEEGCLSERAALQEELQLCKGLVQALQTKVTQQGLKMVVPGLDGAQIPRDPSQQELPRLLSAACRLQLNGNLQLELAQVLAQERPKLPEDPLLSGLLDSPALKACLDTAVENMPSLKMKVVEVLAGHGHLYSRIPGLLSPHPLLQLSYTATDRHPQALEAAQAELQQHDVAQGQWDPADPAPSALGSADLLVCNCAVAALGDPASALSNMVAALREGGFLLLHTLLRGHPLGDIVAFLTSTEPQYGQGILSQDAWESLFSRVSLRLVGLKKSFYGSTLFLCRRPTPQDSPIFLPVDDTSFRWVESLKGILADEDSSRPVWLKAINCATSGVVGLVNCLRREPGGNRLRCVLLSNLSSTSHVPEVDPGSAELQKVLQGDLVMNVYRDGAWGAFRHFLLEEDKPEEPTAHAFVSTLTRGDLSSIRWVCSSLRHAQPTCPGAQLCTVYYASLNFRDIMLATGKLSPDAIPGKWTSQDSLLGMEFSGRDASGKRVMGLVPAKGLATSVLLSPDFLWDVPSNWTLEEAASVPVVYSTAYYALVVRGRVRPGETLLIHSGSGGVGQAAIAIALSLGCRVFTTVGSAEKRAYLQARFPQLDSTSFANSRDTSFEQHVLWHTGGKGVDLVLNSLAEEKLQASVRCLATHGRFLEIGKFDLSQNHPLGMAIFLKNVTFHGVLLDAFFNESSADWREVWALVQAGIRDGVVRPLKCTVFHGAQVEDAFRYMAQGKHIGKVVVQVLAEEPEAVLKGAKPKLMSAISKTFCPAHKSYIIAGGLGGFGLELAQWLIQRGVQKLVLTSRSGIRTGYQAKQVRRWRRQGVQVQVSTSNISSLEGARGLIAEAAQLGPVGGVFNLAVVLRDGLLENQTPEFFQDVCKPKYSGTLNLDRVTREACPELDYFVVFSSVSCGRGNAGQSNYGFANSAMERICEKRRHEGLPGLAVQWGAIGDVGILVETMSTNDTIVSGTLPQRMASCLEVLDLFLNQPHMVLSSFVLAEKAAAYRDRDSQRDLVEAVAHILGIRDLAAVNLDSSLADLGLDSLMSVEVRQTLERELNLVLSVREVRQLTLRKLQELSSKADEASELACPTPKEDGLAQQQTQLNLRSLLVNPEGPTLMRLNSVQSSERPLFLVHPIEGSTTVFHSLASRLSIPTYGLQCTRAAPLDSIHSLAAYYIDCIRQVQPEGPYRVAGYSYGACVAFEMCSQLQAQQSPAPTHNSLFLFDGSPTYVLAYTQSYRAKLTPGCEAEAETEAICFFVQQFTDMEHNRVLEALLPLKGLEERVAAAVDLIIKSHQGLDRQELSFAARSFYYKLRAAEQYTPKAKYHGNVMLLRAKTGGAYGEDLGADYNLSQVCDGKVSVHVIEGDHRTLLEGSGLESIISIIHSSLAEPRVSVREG

| SMILES | IC50 [2] [nM] | other results |
| --- | --- | --- |
| C/C=C/C/C=C/CCC(=O)[C@H]1O[C@H]1C(N)=O [Cerulenin, reference compound] | – | % control 14C acetate incorporation ([1]; compound at 100 μM): 73.3 % control |
| CCNC(=O)N[C@H]1CC[C@@H](C(=O)N(C)c2ccc(-c3nc4ccccc4o3)cc2)C1 [Example 1.1, (1R,3S)-3-(3-Ethyl-ureido)-cyclopentanecarboxylic acid N-(4-benzooxazol-2-yl-phenyl)-N-methyl-amide] | 500 to 3000 | – |
| CCC(=O)N[C@H]1CC[C@@H](C(=O)N(C)c2ccc(-c3nc4ccccc4o3)cc2)C1 [Example 1.2, (1R,3S)-3-Propionylamino-cyclopentanecarboxylic acid N-(4-benzooxazol-2-yl-phenyl)-N-methyl-amide] | ≤ 500 | % control 14C acetate incorporation ([1]; compound at 10 μM): 64.1 % control; microscopic examination of skin (eye lid, muzzle, back skin) ([3]; female Wistar rats, 3, 10 and 30 mg/kg orally once daily for seven days, all dose groups): treatment-related diffuse atrophy of sebaceous glands of the skin; effects on skin and coat of the animals [3, 4]: progressive cranial alopecia; skin of the mouth and eye lid [3, 4]: reddened and swollen |
| CC(=O)N[C@H]1CC[C@@H](C(=O)N(C)c2ccc(-c3nc4ccccc4o3)cc2)C1 [Example 1.3, (1R,3S)-3-Acetylamino-cyclopentanecarboxylic acid N-(4-benzooxazol-2-yl-phenyl)-N-methyl-amide] | ≤ 500 | % control 14C acetate incorporation ([1]; compound at 10 μM): 81.7 % control |
| CN(C)CCCCCC(=O)N[C@H]1CC[C@@H](C(=O)N(C)c2ccc(-c3nc4ccccc4o3)cc2)C1 [Example 1.4, (1R,3S)-3-(6-Dimethylamino-hexanoylamino)-cyclopentanecarboxylic acid N-(4-benzooxazol-2-yl-phenyl)-N-methyl-amide] | 500 to 3000 | – |
| COCC(=O)N[C@H]1CC[C@@H](C(=O)N(C)c2ccc(-c3nc4ccccc4o3)cc2)C1 [Example 1.5, (1R,3S)-3-(2-Methoxy-acetylamino)-cyclopentanecarboxylic acid N-(4-benzooxazol-2-yl-phenyl)-N-methyl-amide] | 500 to 3000 | – |
| CCCC(=O)N[C@H]1CC[C@@H](C(=O)N(C)c2ccc(-c3nc4ccccc4o3)cc2)C1 [Example 1.6, (1R,3S)-3-Butyrylamino-cyclopentanecarboxylic acid N-(4-benzooxazol-2-yl-phenyl)-N-methyl-amide] | ≤ 500 | % control 14C acetate incorporation ([1]; compound at 10 μM): 81.0 % control |
| CN(C)C(=O)N[C@H]1CC[C@@H](C(=O)N(C)c2ccc(-c3nc4ccccc4o3)cc2)C1 [Example 1.7, (1R,3S)-3-(3,3-Dimethyl-ureideo)-cyclopentanecarboxylic acid N-(4-benzooxazol-2-yl-phenyl)-N-methyl-amide] | ≤ 500 | – |
| CN(C(=O)[C@@H]1CC[C@H](NC(=O)C(F)F)C1)c1ccc(-c2nc3ccccc3o2)cc1 [Example 1.8, (1R,3S)-3-(2,2-Difluoro-acetylamino)-cyclopentanecarboxylic acid N-(4-benzooxazol-2-yl-phenyl)-N-methyl-amide] | ≤ 500 | – |
| CCC(=O)N[C@H]1CC[C@@H](C(=O)N(C)c2ccc(-c3nc4ccccc4[nH]3)cc2)C1 [Example 2.1, (1R,3S)-3-Propionylamino-cyclopentanecarboxylic acid N-[4′-(1H-benzoimidazol-2-yl)-phenyl]-N-methyl-amide] | ≤ 500 | % control 14C acetate incorporation ([1]; compound at 10 μM): 80.8 % control |
| CC(=O)N[C@H]1CC[C@@H](C(=O)N(C)c2ccc(-c3nc4ccccc4[nH]3)cc2)C1 [Example 2.2, (1R,3S)-3-Acetylamino-cyclopentanecarboxylic acid N-[4′-(1H-benzoimidazol-2-yl)-phenyl]-N-methyl-amide] | 500 to 3000 | – |
| CC(C)C(=O)N[C@H]1CC[C@@H](C(=O)N(C)c2ccc(-c3nc4ccccc4[nH]3)cc2)C1 [Example 2.3, (1R,3S)-3-Isobutyrylamino-cyclopentanecarboxylic acid N-[4′-(1H-benzoimidazol-2-yl)-phenyl]-N-methyl-amide] | 500 to 3000 | – |
| CCNC(=O)N[C@H]1CC[C@@H](C(=O)N(C)c2ccc(-c3nc4ccccc4[nH]3)cc2)C1 [Example 2.4, (1R,3S)-3-(3-Ethyl-ureido)-cyclopentanecarboxylic acid N-[4′-(1H-benzoimidazol-2-yl)-phenyl]-N-methyl-amide] | ≤ 500 | – |
| CN(C)CCCCCC(=O)N[C@H]1CC[C@@H](C(=O)N(C)c2ccc(-c3nc4ccccc4[nH]3)cc2)C1 [Example 2.5, (1R,3S)-3-(6-Dimethylamino-hexanoylamino)-cyclopentanecarboxylic acid N-[4′-(1H-benzoimidazol-2 yl)-phenyl]-N-methyl-amide] | 500 to 3000 | – |
| CCC(=O)N[C@H]1CC[C@@H](C(=O)N(C)c2ccc(-c3ccccc3)cc2)C1 [Example 3.1, (1R,3S)-3-Propionylamino-cyclopentanecarboxylic acid N-biphenyl-4-yl-N-methyl-amide] | ≤ 500 | % control 14C acetate incorporation ([1]; compound at 10 μM): 76.8 % control |
| CC(C)C(=O)N[C@H]1CC[C@@H](C(=O)N(C)c2ccc(-c3ccccc3)cc2)C1 [Example 3.2, (1R,3S)-3-Isobutyrylamino-cyclopentanecarboxylic acid N-biphenyl-4-yl-N-methyl-amide] | ≤ 500 | – |
| CC(=O)N[C@H]1CC[C@@H](C(=O)N(C)c2ccc(-c3ccccc3)cc2)C1 [Example 3.3, (1R,3S)-3-Acetylamino-cyclopentanecarboxylic acid N-biphenyl-4-yl-N-methyl-amide] | ≤ 500 | – |
| CCNC(=O)N[C@H]1CC[C@@H](C(=O)N(C)c2ccc(-c3ccccc3)cc2)C1 [Example 3.4, (1R,3S)-3-(3-Ethyl-ureido)-cyclopentanecarboxylic acid N-biphenyl-4-yl-N-methyl-amide] | 500 to 3000 | – |
| CN(C)CCCCCC(=O)N[C@H]1CC[C@@H](C(=O)N(C)c2ccc(-c3ccccc3)cc2)C1 [Example 3.5, (1R,3S)-3-(6-Dimethylamino-hexanoylamino)-cyclopentanecarboxylic acid N-biphenyl-4-yl-N-methyl-amide] | 500 to 3000 | – |
| CCNC(=O)N[C@H]1CC[C@@H](C(=O)N(C)c2ccc(-c3nc4ccccc4n3C)cc2)C1 [Example 4.1, (1R,3S)-3-(3-Ethyl-ureido)-cyclopentanecarboxylic acid N-methyl-N-[4-(1-methyl-1H-benzoimidazol-2-yl)-phenyl]-amide] | 500 to 3000 | – |
| CN(C)CCCCCC(=O)N[C@H]1CC[C@@H](C(=O)N(C)c2ccc(-c3nc4ccccc4n3C)cc2)C1 [Example 4.2, (1R,3S)-3-(6-Dimethylamino-hexanoylamino)-cyclopentanecarboxylic acid N-methyl-N-[4-(1-methyl-1H-benzoimidazol-2-yl)-phenyl]-amide] | 500 to 3000 | – |
| CCC(=O)N[C@H]1CC[C@@H](C(=O)N(C)c2ccc(-c3nc4ccccc4n3C)cc2)C1 [Example 5.1, (1R,3S)-3-Propionylamino-cyclopentanecarboxylic acid N-methyl-N-[4-(1-methyl-1H-benzoimidazol-2-yl)-phenyl]-amide] | ≤ 500 | % control 14C acetate incorporation ([1]; compound at 10 μM): 85.7 % control |
| CCC(=O)N[C@H]1CC[C@@H](C(=O)N(C)c2ccc(-c3cn4ccccc4n3)cc2)C1 [Example 5.2, (1R,3S)-3-Propionylamino-cyclopentanecarboxylic acid N-[4-(imidazo[1,2-a]pyridin-2-yl)-phenyl]-N-methyl-amide] | 500 to 3000 | – |
